This is an account of results in US12453708B2, “Aminonaphthoquinone compounds for treatment and/or prevention of fibrosis diseases” (CALGENT BIOTECHNOLOGY CO., LTD., priority 2015, dated 2025).

Structures are written as SMILES.

Holding throughout (assay type): cell-based, human
One data set deals with WI-38 lung fibroblasts. In words: Cell viability test (MTT-assay) in WI-38 cells. The conditions noted are these: 0.3, 1, 3 or 10 μM for 2 hours. The method, then: WI-38 cells, a normal human embryonic lung fibroblast cell line, were obtained from American Type Culture Collection (Manassas, VA). Cells were grown in MEM nutrient mixture, containing 10% FCS, 2 mM L-glutamine, 0.1 mM NEAA, 1 mM sodium pyruvate, 50 U/ml penicillin G, and 100 µg/ml streptomycin, in a humidified 37° C. incubator with 5% CO2 Cells were used between passages 18 and 30 for all experiments. After reaching confluence, cells were seeded onto 6-cm dishes for immunoblotting. WI-38 lung fibroblasts were incubated with different concentrations of MPTOL056 (0.3, 1, 3 or 10 μM) for 2 hours before MTT-assay.

The test system of data set [1] is TGF-β-induced α-SMA expression in WI-38 cells. The data set is described as follows: TGF-β-induced α-SMA expression in WI-38 cells (Western blot). The conditions noted are these: WI-38 lung fibroblasts, 0.3, 1, 3 or 10 μM for 30 min before and during incubation with TGF-β (10 ng/mL). The method, then: (§1) FIGS. 5 (A) and (B) show the effect of L056 on TGF-β-induced α-SMA expression in WI-38 cells. WI-38 lung fibroblasts were incubated with different concentrations of L056 (0.3, 1, 3 or 10 μM) for 30 min before and during incubation for 2 h with TGF-β (10 ng/mL). […] (A), Western blot plot; (B), Quantitative assay of Western blot WI-38 cells, a normal human embryonic lung fibroblast cell line, were obtained from American Type Culture Collection (Manassas, VA). Cells were grown in MEM nutrient mixture, containing 10% FCS, 2 mM L-glutamine, 0.1 mM NEAA, 1 mM sodium pyruvate, 50 U/ml penicillin G, and 100 µg/ml streptomycin, in a humidified 37° C. incubator with 5% CO2 Cells were used between passages 18 and 30 for all experiments. After reaching confluence, cells were seeded onto 6-cm dishes for immunoblotting. Western blot analyses were performed as described previously (Chen B C, Chang Y S, Kang J C, Hsu M J, Sheu J R, Chen T L, et al. Peptidoglycan induces nuclear factor-kappaB activation and cyclooxygenase-2 expression via Ras, Raf-1, and ERK in RAW 264.7 macrophages. J Biol Chem 2004; 279:20889-97). […] The immunoreactivity was detected using enhanced chemiluminescence (ECL) following the manufacturer's instructions. Quantitative data were obtained using a computing densitometer with scientific imaging systems (Kodak, Rochester, NY). […]

Data set [2] has as its system TGF-β-induced collagen expression in WI-38 cells. The data set is described as follows: TGF-β-induced collagen expression in WI-38 cells (Western blot, immunofluorescence). The conditions noted are these: WI-38 lung fibroblasts, 0.3, 1, 3 or 10 μM, TGF-β (10 ng/mL). The protocol: as §1, with “FIGS. 4 (A), (B) and (C)” for “FIGS. 5 (A) and (B)”, “(B) and (C) show the” for “(A) and (B) show the”, “on TGF-β-induced collagen expression in” for “on TGF-β-induced α-SMA expression in”, “of Western blot; (C), Immunofluorescence plot. WI-38 cells,” for “of Western blot WI-38 cells,”

`O=C(Nc1ccncc1)c1ccc(CNC2=C(Cl)C(=O)c3ccccc3C2=O)cc1` [Example L056, 4-(((3-chloro-1,4-dioxo-1,4-dihydronaphthalen-2-yl)amino)methyl)-N-(pyridin-4-yl)benzamide]: in the data set with WI-38 lung fibroblasts, the cell viability entry is on record as “did not affect cell viability”. Moreover, in data set [1], the “TGF-β-induced α-SMA expression” value is listed as “significantly inhibited”. The TGF-β-induced collagen production/expression entry in data set [2] is “significantly inhibited”; in data set [2] (listed as MPTOL056), “inhibited”.
